According to US7655701B2, “Cycloalkylidene-(ortho substituted phenyl)-acetonitriles and their use as odorants” (Givaudan SA, priority 2005, dated 2010):

Test: Determination of GC-odor threshold values
Conditions: gas chromatograph with sniff port, panel of trained evaluators; absolute amount delivered at the sniff port
Procedure: According to standard procedures known to the person skilled in the art, threshold values for volatile perfumery compounds are determined on a gas chromatograph equipped with a sniff port by a panel of trained evaluators. The lowest concentration smelled by each panellist is recorded as the individual threshold value expressed in ng (absolute amount of compound delivered at the sniff port).
Under identical conditions the odour threshold value for the individual compounds was measured.

| SMILES | odour threshold value geometric mean [ng] |
| --- | --- |
| Cc1ccccc1C(C#N)=C1CCCCC1 [Example 1, Cyclohexylidene-o-tolyl-acetonitrile] | 0.12 |
| Cc1ccc(C(C#N)=C2CCCCC2)cc1 [Example 2, Cyclohexylidene-p-tolyl-acetonitrile] | 2.91 |
| Cc1cccc(C(C#N)=C2CCCCC2)c1 [Example 4, Cyclohexylidene-m-tolyl-acetonitrile] | 1.08 |
| N#CC(=C1CCCCC1)c1ccccc1 [Peonile ®, cyclohexylidene-phenyl-acetonitrile] | 0.53 |
